Reference: US20260250257A1, “ANTIBACTERIAL AND SYNERGISTIC ACTIVE COMPOUND AND USE THEREOF” (EAST CHINA UNIVERSITY OF SCIENCE AND TECHNOLOGY, priority 2023, published 2026)
In brackets after ≈: the same amount, converted by molar mass.

Tests used:
Format in all cases: cell-based
[1] = tested on: ATCC13883 strain (Klebsiella pneumoniae); assay: Checkerboard antibacterial synergistic activity test with polymyxin E (FIC); design: key: FIC≤0.5 synergy; 0.5–1 additive; 1–2 indifferent; ≥2 antagonism; details: combined with polymyxin E
Procedure, shortened: (§1)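 First, two-fold series of polymyxin E (16–0.015 μg/ml) and compound (256–4 μg/ml) were made in MH broth. Next, combinations went into a 96-well grid, bacterial liquid was added, and plates sat at 37° C. for 16 h. Finally, FIC was computed and classed (≤0.5 synergistic).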

[2] = tested on: ATCC19606 strain (Acinetobacter baumannii); assay: as above; design: key: FIC≤0.5 synergy; 0.5–1 additive; 1–2 indifferent; ≥2 antagonism; details: combined with polymyxin E
Procedure, shortened: as §1

[3] = tested on: ATCC25922 strain (Escherichia coli); assay: as above; design: key: FIC≤0.5 synergy; 0.5–1 additive; 1–2 indifferent; ≥2 antagonism; details: combined with polymyxin E
Procedure, shortened: as §1

[4] = tested on: ATCC9027 strain (Pseudomonas aeruginosa); assay: as above; design: key: FIC≤0.5 synergy; 0.5–1 additive; 1–2 indifferent; ≥2 antagonism; details: combined with polymyxin E
Procedure, shortened: as §1

[5] = tested on: ATCC13883 strain (Klebsiella pneumoniae); assay: Broth microdilution, antibacterial activity of the compound used alone; details: for MIC: read-out: Antibacterial activity of the compound of Formula I, ATCC13883
Text: (§2) The broth microdilution method was used to test the antibacterial effects of the compounds of the present invention against various Gram-negative bacterial strains when used alone.

[6] = tested on: ATCC19606 strain (Acinetobacter baumannii); assay: as above; details: for MIC: read-out: Antibacterial activity of the compound of Formula I, ATCC19606
Text: as §2

[7] = tested on: ATCC25922 strain (Escherichia coli); assay: as above; details: for MIC: read-out: Antibacterial activity of the compound of Formula I, ATCC25922
Text: as §2

[8] = tested on: ATCC9027 strain (Pseudomonas aeruginosa); assay: as above; details: for MIC: read-out: Antibacterial activity of the compound of Formula I, ATCC9027
Text: as §2

| Compound | Synergistic activity (FIC value) ATCC13883 [1] | Synergistic activity (FIC value) ATCC19606 [2] | Synergistic activity (FIC value) ATCC25922 [3] | Synergistic activity (FIC value) ATCC9027 [4] | MIC [5] | MIC [6] | MIC [7] | MIC [8] | Antibacterial activity of the compound of Formula I, ATCC13883 [5] | Antibacterial activity of the compound of Formula I, ATCC19606 [6] | Antibacterial activity of the compound of Formula I, ATCC25922 [7] | Antibacterial activity of the compound of Formula I, ATCC9027 [8] |
| --- | --- | --- | --- | --- | --- | --- | --- | --- | --- | --- | --- | --- |
| NC(N)=Nc1nc(-c2cccc(NS(=O)(=O)c3ccccc3)c2)cs1 [Compound I-111] | 0.25 | 0.5 | 0.63 | 1.25 | 256 µg/mL (≈ 685 µM) | 256 µg/mL (≈ 685 µM) | 256 µg/mL (≈ 685 µM) | 256 µg/mL (≈ 685 µM) | – | – | – | – |
| NC(N)=Nc1nc(-c2cc3ccccc3o2)cs1 [Compound I-112] | 1.25 | 0.51 | 1.25 | 0.52 | 256 µg/mL (≈ 991 µM) | 256 µg/mL (≈ 991 µM) | 256 µg/mL (≈ 991 µM) | 256 µg/mL (≈ 991 µM) | – | – | – | – |
| NC(N)=Nc1nc(-c2cc(OCc3ccccc3)no2)cs1 [Compound I-113] | 1.25 | 1.25 | 0.53 | 1.25 | 128 µg/mL (≈ 406 µM) | 256 µg/mL (≈ 812 µM) | 128 µg/mL (≈ 406 µM) | 64 µg/mL (≈ 203 µM) | – | – | – | – |
| NC(N)=Nc1nc(-c2ccc(OCc3ccccc3)c3nc(O)ccc23)cs1 [Compound I-114] | 1.25 | 0.27 | 0.5 | 1.25 | 256 µg/mL (≈ 654 µM) | 256 µg/mL (≈ 654 µM) | 256 µg/mL (≈ 654 µM) | 256 µg/mL (≈ 654 µM) | – | – | – | – |
| NC(N)=Nc1nc(-c2cccc3c2C(F)(F)c2cc(Br)ccc2-3)cs1 [Compound I-115] | 1.25 | 1.25 | 1.25 | 1.25 | 256 µg/mL (≈ 608 µM) | 256 µg/mL (≈ 608 µM) | 256 µg/mL (≈ 608 µM) | 256 µg/mL (≈ 608 µM) | – | – | – | – |
| NC(N)=Nc1nc(-c2cc(Cl)cc3c2Cc2ccc(Cl)cc2-3)cs1 [Compound I-116] | 0.63 | 0.25 | 0.5 | 1.25 | – | – | – | – | 256 µg/mL | 256 µg/mL | 256 µg/mL | 256 µg/mL |
| NC(N)=Nc1nc(C2CC3CC4CC3CC2C4)cs1 (stereo not drawn) [Compound I-117] | 0.25 | 0.5 | 0.63 | 1.25 | 64 µg/mL (≈ 232 µM) | 256 µg/mL (≈ 926 µM) | 32 µg/mL (≈ 116 µM) | 16 µg/mL (≈ 57.9 µM) | – | – | – | – |
| NC(N)=Nc1nc(-c2c(S(N)(=O)=O)csc2Cl)cs1 [Compound I-118] | 0.19 | 1.25 | 1.25 | 1.25 | 256 µg/mL (≈ 758 µM) | 256 µg/mL (≈ 758 µM) | 256 µg/mL (≈ 758 µM) | 256 µg/mL (≈ 758 µM) | – | – | – | – |
| NC(N)=Nc1nc(-c2ccc3c(c2)COc2c-3ccc3c2C(=O)CCC3)cs1 [Compound I-119] | 0.19 | 1.25 | 1.25 | 1.25 | – | – | – | – | 256 µg/mL | 256 µg/mL | 256 µg/mL | 256 µg/mL |
| NC(N)=Nc1nc(-c2cccc(N3CCOCC3)c2)cs1 [Compound I-120] | 0.28 | 1.25 | 0.75 | 0.25 | – | – | – | – | 256 µg/mL | 256 µg/mL | 256 µg/mL | 256 µg/mL |
| NC(N)=Nc1nc(-c2ccc(O)c(CO)c2)cs1 [Compound I-121] | 1.25 | 1.25 | 0.56 | 1.25 | 256 µg/mL (≈ 969 µM) | 256 µg/mL (≈ 969 µM) | 256 µg/mL (≈ 969 µM) | 256 µg/mL (≈ 969 µM) | – | – | – | – |
| NC(N)=Nc1nc(-c2ccc3ccccn23)cs1 [Compound I-122] | 0.56 | 0.56 | 0.38 | 0.75 | – | – | – | – | 256 µg/mL | 256 µg/mL | 256 µg/mL | 256 µg/mL |
| CSc1cc2ccccn2c1-c1csc(N=C(N)N)n1 [Compound I-123] | 0.09 | 0.31 | 0.14 | 0.06 | 256 µg/mL (≈ 844 µM) | 256 µg/mL (≈ 844 µM) | 256 µg/mL (≈ 844 µM) | 256 µg/mL (≈ 844 µM) | – | – | – | – |
| CSc1cc2c(C)cccn2c1-c1csc(N=C(N)N)n1 [Compound I-124] | 0.19 | 0.38 | 0.04 | 0.04 | – | – | – | – | 256 µg/mL | 256 µg/mL | 256 µg/mL | 256 µg/mL |
| CSc1cc2cc(C)ccn2c1-c1csc(N=C(N)N)n1 [Compound I-125] | 0.16 | 0.03 | 0.18 | 0.28 | – | – | – | – | 256 µg/mL | 256 µg/mL | 256 µg/mL | 256 µg/mL |
| CSc1cc2ccc(C)cn2c1-c1nc(N=C(N)N)sc1C [Compound I-126] | 0.13 | 0.04 | 0.2 | 0.28 | – | – | – | – | 256 µg/mL | 256 µg/mL | 256 µg/mL | 256 µg/mL |
| CSc1cc2cccc(C)n2c1-c1nc(N=C(N)N)sc1Cl [Compound I-127] | 0.09 | 0.31 | 0.14 | 0.06 | – | – | – | – | 128 µg/mL | 256 µg/mL | 128 µg/mL | 64 µg/mL |
| CSc1cc2cc(C)cc(C)n2c1-c1nc(N=C(N)N)oc1C [Compound I-128] | 0.16 | 0.03 | 0.18 | 0.28 | – | – | – | – | 256 µg/mL | 256 µg/mL | 256 µg/mL | 256 µg/mL |
| CSc1cc2c(Cl)cccn2c1-c1c[nH]c(N=C(N)N)n1 [Compound I-129] | 0.09 | 0.31 | 0.14 | 0.06 | – | – | – | – | 256 µg/mL | 256 µg/mL | 256 µg/mL | 256 µg/mL |
| CSc1cc2cc(Cl)cc(Cl)n2c1-c1nc(N=C(N)N)sc1Cl [Compound I-130] | 0.16 | 0.03 | 0.18 | 0.28 | – | – | – | – | 256 µg/mL | 256 µg/mL | 256 µg/mL | 256 µg/mL |
| NC(N)=Nc1nc(-c2cccc(NC(=O)Nc3ccccc3)c2)cs1 [Compound I-131] | 0.09 | 0.31 | 0.14 | 0.06 | 256 µg/mL (≈ 726 µM) | 256 µg/mL (≈ 726 µM) | 256 µg/mL (≈ 726 µM) | 256 µg/mL (≈ 726 µM) | – | – | – | – |
